Results published in patent US20100311581A1, “Azolylmethyloxiranes, use Thereof and Agents Containing the Same” (BASF SE, priority 2007, published 2010).
Read-outs that look alike come from different tables or passages of the source.

What was measured:
Septoria tritici = experiment: Activity against Septoria leaf blotch Septoria tritici in the microtiter test (Septtr); format: cell-based
Pyriculana oryzae = format: cell-based
Phakopsora pachyrhizi = experiment: Curative activity against soya rust caused by Phakopsora pachyrhizi (Phakpa K1), greenhouse; format: in vivo; settings: curative spray on soya seedlings, visual rating after 14 days in greenhouse, untreated 90% attack
Leptosphaeria nodorum = experiment: Activity against glume blotch Leptosphaeria nodorum in the microtiter test (Leptno); format: cell-based
[1] = Comparison tests, microtiter test
[2] = microtiter plate, 7th day after inoculation, 405 nm, relative to active compound-free control (100%)
[3] = 31 ppm, microtiter plate, seventh day after inoculation, 405 nm, relative to active compound-free control (=100%)
[4] = Comparison tests, 31 ppm, microtiter test

Fc1ccccc1[C@@]1(Cn2nc[nH]c2=S)O[C@@H]1c1ccccc1Cl
Growth in % at 31 ppm with Septtr (Septoria tritici; [1]): 58%

Fc1cccc([C@@]2(Cn3nc[nH]c3=S)O[C@@H]2c2ccccc2Cl)c1 (relative stereo) [Example 1, 1-[rel-(2S,3R)-3-(2-chlorophenyl)-2-(3-fluorophenyl)oxiran-2-ylmethyl]-1H-1,2,4-triazole-5(4H)-thione]
Growth in % at 31 ppm with Septtr (Septoria tritici; [1]): 21% | Growth in % at 31 ppm with Septtr (Septoria tritici; [2]): 21%

Cc1ccccc1[C@H]1O[C@]1(Cn1nc[nH]c1=S)c1cccc(F)c1 (relative stereo) [Example 3, 1-[rel-(2S,3R)-2-(3-fluorophenyl)-3-o-tolyloxiran-2-ylmethyl]-1H-1,2,4-triazole-5(4H)-thione]
Growth in % at 31 ppm with Septtr (Septoria tritici; [2]): 11%

CSc1ncnn1C[C@]1(c2cccc(F)c2)O[C@@H]1c1ccccc1F (relative stereo) [Example 4, 1-[rel-(2S,3R)-3-(2-fluorophenyl)-2-(3-fluorophenyl)oxiran-2-ylmethyl]-5-(methylthio)-1H-1,2,4-triazole]
Growth in % at 31 ppm with Pyrior (Pyriculana oryzae; [3]): 0% | Growth in % at 31 ppm with Pyrior (Pyriculana oryzae; [4]): 0%

CSc1ncnn1C[C@]1(c2cccc(F)c2)O[C@@H]1c1ccccc1C (relative stereo) [Example 5, 1-rel-[(2S,3R)-2-(3-fluorophenyl)-3-o-tolyloxiran-2-ylmethyl]-5-(methylthio)-1H-1,2,4-triazole]
Growth in % at 31 ppm with Pyrior (Pyriculana oryzae; [3]): 0%

CSc1ncnn1C[C@]1(c2cccc(F)c2)O[C@@H]1c1ccccc1Cl (relative stereo) [Example 6, 1-[rel-(2S,3R)-3-(2-chlorophenyl)-2-(3-fluorophenyl)oxiran-2-ylmethyl]-5-(methylthio)-1H-1,2,4-triazole]
Attack in % at 600 ppm with Phakpa K1 (Phakopsora pachyrhizi): 0%

N#CSc1ncnn1C[C@]1(c2cccc(F)c2)O[C@@H]1c1ccccc1Cl (relative stereo) [Example 9, 1-[rel-(2S,3R)-3-(2-chlorophenyl)-2-(3-fluorophenyl)oxiran-2-ylmethyl]-5-thiocyanato-1H-1,2,4-triazole]
Growth in % at 31 ppm with Septtr (Septoria tritici; [2]): 49%

CCOP(=S)(OCC)Sc1ncnn1C[C@]1(c2cccc(F)c2)O[C@@H]1c1ccccc1Cl (relative stereo) [Example 10, S-1-[rel-(2S,3R)-3-(2-chlorophenyl)-2-(3-fluorophenyl)oxiran-2-ylmethyl]-1H-1,2,4-triazole-5-yl O,O-diethyl phosphorodithioate]
Growth in % at 31 ppm with Pyrior (Pyriculana oryzae): 0%

COC(=O)Sc1ncnn1C[C@]1(c2cccc(F)c2)O[C@@H]1c1ccccc1Cl (relative stereo) [Example 12, methyl {2-[rel-(2S,3R)-3-(2-chlorophenyl)-2-(3-fluorophenyl)-oxiranylmethyl]-2H-[1,2,4]triazole-3-yl}thiocarbonate]
Growth in % at 31 ppm with Septtr (Septoria tritici; [1]): 25% | Growth in % at 31 ppm with Leptno (Leptosphaeria nodorum; [1]): 0% | Growth in % at 31 ppm with Leptno (Leptosphaeria nodorum; microtiter plate, 7th day after inoculation, 405 nm, relative to active compound-free control): 0%

CSc1ncnn1C[C@]1(c2ccc(F)cc2)O[C@@H]1c1ccccc1F [WO9638440, p. 17 (4th compound),]
Growth in % at 31 ppm with Pyrior (Pyriculana oryzae; [4]): 100%

COC(=O)Sc1ncnn1CC1(c2ccc(F)cc2)OC1c1ccccc1Cl (stereo not shown) [WO9742178, p. 55 (4th compound)]
Growth in % at 31 ppm with Septtr (Septoria tritici; [1]): 100% | Growth in % at 31 ppm with Leptno (Leptosphaeria nodorum; [1]): 100%
